Reference: article PMC4076210, “Discovery of Novel AKT Inhibitors with Enhanced Anti-Tumor Effects in Combination with the MEK Inhibitor” (PLoS ONE, 2014)
Where two headings read alike, the source gives them in different places.

Key:
Test in all cases: Kinase panel
Type in all cases: biochemical
[1] = target: T1, ARK5(h) (Homo sapiens, UniProt O60285)
T1 construct: purchased Millipore KinaseProfiler
T1 sequence (O60285 1-661): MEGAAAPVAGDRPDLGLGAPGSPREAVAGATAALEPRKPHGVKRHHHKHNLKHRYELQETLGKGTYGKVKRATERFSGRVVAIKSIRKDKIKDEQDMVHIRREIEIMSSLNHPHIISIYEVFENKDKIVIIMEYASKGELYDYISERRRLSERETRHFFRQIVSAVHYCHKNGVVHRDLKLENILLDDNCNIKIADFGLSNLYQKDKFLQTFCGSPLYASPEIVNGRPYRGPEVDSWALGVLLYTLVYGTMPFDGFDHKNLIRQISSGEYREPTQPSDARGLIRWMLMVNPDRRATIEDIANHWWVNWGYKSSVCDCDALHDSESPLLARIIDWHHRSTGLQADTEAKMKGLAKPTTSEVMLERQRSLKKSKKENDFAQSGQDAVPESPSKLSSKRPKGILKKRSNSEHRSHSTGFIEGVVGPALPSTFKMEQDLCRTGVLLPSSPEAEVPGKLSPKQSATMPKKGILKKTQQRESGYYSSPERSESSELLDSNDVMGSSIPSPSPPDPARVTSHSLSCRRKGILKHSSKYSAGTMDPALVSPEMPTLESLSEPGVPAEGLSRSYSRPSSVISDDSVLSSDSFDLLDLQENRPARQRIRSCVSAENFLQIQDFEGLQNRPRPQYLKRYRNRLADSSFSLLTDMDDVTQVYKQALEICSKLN

[2] = target: T2, CDK3/cyclinE(h) (Homo sapiens, UniProt Q00526)
T2 construct: purchased Millipore KinaseProfiler

[3] = target: T3, PKCβI(h) (Homo sapiens, UniProt P05771)
T3 construct: purchased Millipore KinaseProfiler

[4] = target: T4, PKCζ(h) (Homo sapiens, UniProt Q05513)
T4 construct: purchased Millipore KinaseProfiler
T4 sequence (Q05513 1-592): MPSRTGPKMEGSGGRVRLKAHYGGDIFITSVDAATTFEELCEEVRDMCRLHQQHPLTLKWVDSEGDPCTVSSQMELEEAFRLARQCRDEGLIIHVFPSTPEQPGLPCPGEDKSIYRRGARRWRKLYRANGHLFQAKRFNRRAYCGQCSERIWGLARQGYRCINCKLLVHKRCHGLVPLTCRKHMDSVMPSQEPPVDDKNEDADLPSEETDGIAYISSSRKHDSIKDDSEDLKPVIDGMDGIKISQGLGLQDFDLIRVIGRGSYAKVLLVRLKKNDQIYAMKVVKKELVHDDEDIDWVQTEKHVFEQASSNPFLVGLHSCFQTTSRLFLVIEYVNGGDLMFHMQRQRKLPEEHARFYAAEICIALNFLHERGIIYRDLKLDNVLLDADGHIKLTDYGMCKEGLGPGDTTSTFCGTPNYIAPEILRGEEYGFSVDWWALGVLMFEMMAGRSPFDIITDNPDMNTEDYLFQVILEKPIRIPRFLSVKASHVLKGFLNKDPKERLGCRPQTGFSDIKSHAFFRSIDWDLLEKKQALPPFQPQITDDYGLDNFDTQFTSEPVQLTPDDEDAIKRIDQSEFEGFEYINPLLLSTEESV

[5] = target: T5, MRCKβ(h) (Homo sapiens, UniProt Q9Y5S2)
T5 construct: purchased Millipore KinaseProfiler

[6] = target: T6, ROCK-II(r) (Rattus norvegicus, UniProt Q62868)
T6 construct: purchased Millipore KinaseProfiler

[7] = target: T7, Met(h) (Homo sapiens, UniProt P08581)
T7 construct: purchased Millipore KinaseProfiler

[8] = target: T8, WNK2(h) (Homo sapiens, UniProt Q9Y3S1)
T8 construct: purchased Millipore KinaseProfiler

[9] = target: T9, Abl (H396P) (h) (Homo sapiens, UniProt P00519, H396P)
T9 construct: purchased Millipore KinaseProfiler

[10] = target: T10, CHK2(h) (Homo sapiens, UniProt O96017)
T10 construct: purchased Millipore KinaseProfiler

[11] = target: T11, PDK1(h) (Homo sapiens, UniProt O15530)
T11 construct: purchased Millipore KinaseProfiler
T11 sequence (O15530 1-556): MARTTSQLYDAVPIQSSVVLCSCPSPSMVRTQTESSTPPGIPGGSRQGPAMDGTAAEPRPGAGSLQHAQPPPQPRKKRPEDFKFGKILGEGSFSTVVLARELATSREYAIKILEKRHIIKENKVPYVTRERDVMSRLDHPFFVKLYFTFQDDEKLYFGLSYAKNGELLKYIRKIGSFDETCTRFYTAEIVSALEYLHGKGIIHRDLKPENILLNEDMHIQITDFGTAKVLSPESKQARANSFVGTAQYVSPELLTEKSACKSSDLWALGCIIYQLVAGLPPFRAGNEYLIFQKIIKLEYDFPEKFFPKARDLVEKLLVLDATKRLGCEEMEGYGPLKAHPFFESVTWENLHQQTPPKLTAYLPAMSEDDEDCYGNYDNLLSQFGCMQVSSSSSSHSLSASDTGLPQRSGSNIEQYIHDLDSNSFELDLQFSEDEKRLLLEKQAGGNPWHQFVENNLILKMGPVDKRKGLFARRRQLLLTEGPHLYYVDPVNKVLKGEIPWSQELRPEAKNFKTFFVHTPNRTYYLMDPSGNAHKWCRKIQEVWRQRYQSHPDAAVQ

[12] = target: T12, ZIPK(h) (Homo sapiens, UniProt O43293)
T12 construct: purchased Millipore KinaseProfiler

[13] = target: T13, BRK(h) (Homo sapiens, UniProt Q13882)
T13 construct: purchased Millipore KinaseProfiler

[14] = target: T14, c-RAF(h) (Homo sapiens, UniProt P04049)
T14 construct: purchased Millipore KinaseProfiler

T12 sequence (O43293 whole entry): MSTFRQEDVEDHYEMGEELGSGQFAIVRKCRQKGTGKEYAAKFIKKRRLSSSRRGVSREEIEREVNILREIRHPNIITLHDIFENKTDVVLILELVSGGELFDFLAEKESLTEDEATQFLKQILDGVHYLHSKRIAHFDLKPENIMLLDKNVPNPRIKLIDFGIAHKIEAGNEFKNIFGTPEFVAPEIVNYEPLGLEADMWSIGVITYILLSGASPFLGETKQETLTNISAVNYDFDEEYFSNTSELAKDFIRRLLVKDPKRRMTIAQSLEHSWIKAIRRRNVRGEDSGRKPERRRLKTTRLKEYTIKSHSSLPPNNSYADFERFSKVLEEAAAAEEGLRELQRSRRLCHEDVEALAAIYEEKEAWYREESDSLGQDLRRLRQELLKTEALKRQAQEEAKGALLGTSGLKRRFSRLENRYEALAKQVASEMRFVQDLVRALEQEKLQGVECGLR
T8 sequence (Q9Y3S1 whole entry): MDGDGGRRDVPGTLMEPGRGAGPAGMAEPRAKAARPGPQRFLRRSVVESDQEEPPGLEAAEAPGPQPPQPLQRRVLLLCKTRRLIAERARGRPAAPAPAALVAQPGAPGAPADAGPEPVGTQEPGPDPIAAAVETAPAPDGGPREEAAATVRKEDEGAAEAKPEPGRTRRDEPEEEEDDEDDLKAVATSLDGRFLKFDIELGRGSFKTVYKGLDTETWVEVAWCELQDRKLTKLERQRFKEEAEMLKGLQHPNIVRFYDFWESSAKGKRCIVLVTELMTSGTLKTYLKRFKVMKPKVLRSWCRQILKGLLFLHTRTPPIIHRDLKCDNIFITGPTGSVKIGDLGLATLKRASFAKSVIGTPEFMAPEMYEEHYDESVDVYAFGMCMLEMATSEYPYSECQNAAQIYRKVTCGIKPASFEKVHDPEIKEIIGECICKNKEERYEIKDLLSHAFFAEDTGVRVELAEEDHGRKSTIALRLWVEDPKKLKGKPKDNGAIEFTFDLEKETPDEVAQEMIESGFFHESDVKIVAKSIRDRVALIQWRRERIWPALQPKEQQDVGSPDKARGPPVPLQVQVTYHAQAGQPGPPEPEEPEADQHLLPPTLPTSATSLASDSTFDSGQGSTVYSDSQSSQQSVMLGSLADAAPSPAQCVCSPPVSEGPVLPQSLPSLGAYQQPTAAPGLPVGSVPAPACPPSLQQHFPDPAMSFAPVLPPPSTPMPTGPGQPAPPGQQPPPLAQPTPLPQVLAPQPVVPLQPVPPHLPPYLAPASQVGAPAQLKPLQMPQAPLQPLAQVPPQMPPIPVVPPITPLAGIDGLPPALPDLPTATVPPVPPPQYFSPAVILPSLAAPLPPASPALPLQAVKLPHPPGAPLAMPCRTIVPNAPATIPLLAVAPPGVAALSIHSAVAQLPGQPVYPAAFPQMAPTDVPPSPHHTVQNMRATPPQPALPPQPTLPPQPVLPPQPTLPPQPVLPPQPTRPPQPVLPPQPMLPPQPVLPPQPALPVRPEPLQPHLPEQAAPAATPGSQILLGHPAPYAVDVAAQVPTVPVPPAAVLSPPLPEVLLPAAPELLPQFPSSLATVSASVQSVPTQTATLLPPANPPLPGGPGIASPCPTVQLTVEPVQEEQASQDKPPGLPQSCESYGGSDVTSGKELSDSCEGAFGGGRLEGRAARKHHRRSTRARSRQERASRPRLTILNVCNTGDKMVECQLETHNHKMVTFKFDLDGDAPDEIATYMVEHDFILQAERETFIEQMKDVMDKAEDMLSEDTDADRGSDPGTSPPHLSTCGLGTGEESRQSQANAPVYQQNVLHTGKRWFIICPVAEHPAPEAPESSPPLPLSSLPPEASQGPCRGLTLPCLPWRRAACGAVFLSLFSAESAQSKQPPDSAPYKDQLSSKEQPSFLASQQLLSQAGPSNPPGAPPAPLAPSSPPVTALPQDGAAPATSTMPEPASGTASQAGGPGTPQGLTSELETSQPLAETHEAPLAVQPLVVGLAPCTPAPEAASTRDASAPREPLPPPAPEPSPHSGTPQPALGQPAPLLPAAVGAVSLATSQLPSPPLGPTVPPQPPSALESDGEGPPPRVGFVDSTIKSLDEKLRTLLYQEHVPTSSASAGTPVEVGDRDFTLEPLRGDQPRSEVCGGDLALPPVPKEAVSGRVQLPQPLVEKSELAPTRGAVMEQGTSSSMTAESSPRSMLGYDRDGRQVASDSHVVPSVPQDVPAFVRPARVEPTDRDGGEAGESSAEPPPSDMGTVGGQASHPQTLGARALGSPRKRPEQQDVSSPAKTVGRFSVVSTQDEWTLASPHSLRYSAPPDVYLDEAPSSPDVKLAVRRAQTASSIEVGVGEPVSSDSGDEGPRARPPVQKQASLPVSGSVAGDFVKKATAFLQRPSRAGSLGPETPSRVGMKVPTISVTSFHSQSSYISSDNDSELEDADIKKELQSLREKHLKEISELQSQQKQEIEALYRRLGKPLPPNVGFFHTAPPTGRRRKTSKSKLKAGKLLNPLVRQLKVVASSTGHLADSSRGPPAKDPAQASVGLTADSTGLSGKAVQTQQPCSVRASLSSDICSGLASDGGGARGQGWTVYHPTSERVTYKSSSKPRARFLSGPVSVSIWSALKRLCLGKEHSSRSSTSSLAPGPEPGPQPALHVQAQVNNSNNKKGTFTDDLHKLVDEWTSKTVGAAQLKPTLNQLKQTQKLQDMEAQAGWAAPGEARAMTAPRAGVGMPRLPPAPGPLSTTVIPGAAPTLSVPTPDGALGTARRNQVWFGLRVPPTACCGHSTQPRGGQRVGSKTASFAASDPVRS
T2 sequence (Q00526 whole entry): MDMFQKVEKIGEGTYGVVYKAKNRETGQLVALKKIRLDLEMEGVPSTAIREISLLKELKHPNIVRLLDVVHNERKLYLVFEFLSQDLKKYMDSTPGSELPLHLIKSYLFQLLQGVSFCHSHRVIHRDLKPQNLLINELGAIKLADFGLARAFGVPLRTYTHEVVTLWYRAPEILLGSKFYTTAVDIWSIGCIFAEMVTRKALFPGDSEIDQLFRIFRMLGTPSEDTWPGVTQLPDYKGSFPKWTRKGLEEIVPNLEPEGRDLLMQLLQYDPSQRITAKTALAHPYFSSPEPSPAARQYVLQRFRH
T2 sequence (P24864 whole entry partner): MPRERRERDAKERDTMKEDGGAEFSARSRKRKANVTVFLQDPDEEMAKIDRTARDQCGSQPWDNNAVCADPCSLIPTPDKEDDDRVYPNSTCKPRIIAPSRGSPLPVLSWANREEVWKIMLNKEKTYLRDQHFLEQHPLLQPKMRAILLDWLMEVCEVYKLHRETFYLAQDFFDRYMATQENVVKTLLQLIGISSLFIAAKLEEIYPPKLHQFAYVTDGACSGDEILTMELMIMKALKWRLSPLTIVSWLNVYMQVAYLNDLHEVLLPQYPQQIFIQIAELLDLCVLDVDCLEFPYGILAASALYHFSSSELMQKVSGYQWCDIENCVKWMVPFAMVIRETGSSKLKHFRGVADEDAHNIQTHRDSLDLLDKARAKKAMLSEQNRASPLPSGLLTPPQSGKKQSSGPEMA
T7 sequence (P08581 25-1390): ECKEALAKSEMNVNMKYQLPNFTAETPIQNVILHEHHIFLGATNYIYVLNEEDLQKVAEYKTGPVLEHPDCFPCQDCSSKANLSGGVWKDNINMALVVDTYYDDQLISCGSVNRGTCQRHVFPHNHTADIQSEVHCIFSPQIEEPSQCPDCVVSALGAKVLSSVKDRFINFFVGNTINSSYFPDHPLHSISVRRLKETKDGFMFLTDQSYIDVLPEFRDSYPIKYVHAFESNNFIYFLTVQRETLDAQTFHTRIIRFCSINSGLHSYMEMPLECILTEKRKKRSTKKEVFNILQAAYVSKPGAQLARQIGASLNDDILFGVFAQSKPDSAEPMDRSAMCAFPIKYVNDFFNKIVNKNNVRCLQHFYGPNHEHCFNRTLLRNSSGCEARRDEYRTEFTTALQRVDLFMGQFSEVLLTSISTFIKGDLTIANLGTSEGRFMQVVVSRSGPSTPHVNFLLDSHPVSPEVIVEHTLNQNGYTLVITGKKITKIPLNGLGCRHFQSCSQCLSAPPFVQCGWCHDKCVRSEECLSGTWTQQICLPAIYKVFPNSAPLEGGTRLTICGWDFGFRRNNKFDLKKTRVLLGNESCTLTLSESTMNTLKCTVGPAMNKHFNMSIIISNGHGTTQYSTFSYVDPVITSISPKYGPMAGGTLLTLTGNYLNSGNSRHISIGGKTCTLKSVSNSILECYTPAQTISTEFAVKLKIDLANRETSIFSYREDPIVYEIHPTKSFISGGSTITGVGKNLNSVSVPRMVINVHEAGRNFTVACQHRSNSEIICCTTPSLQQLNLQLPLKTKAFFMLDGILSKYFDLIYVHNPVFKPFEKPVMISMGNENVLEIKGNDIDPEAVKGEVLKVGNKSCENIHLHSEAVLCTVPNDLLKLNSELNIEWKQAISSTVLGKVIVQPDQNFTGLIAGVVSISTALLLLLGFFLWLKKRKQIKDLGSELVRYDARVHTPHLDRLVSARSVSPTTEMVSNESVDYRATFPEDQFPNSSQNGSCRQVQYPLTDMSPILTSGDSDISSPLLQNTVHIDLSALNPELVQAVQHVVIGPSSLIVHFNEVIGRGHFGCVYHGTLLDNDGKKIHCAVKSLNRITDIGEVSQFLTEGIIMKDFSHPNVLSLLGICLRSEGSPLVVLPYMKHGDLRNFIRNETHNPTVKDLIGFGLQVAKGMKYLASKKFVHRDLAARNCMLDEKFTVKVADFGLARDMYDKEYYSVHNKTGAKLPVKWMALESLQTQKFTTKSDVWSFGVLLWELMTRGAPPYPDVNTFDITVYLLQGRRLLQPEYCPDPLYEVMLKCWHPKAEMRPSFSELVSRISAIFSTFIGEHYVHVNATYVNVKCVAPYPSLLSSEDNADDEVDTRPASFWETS

**Q.** `Cn1ncc(Cl)c1-c1cc(C(=O)N[C@H](CN)Cc2ccc(F)c(F)c2)oc1Cl` [GSK2141795] was tested. Which inhibition at 0.5 µM ([1]; 0.5 µM, read-out: % Inhibition) did it give?
**A.** -5%

**Q.** And the inhibition at 10 µM ([1]; 10 µM, read-out: % Inhibition)?
**A.** 18%

**Q.** And the inhibition at 0.5 µM ([2]; 0.5 µM, read-out: % Inhibition)?
**A.** -13%

**Q.** What about the inhibition at 10 µM ([2]; 10 µM, read-out: % Inhibition) of the same compound?
**A.** 30%

**Q.** And the inhibition at 0.5 µM ([3]; 0.5 µM, read-out: % Inhibition)?
**A.** 74%

**Q.** And the inhibition at 10 µM ([3]; 10 µM, read-out: % Inhibition)?
**A.** 97%

**Q.** What about the inhibition at 0.5 µM ([4]; 0.5 µM, read-out: % Inhibition) of the same compound?
**A.** 5%

**Q.** What about the inhibition at 10 µM ([4]; 10 µM, read-out: % Inhibition) of the same compound?
**A.** 74%

**Q.** And the inhibition at 0.5 µM ([5]; 0.5 µM, read-out: % Inhibition)?
**A.** -8%

**Q.** And the inhibition at 10 µM ([5]; 10 µM, read-out: % Inhibition)?
**A.** 3%

**Q.** And the inhibition at 0.5 µM ([6]; 0.5 µM, read-out: % Inhibition)?
**A.** 72%

**Q.** And the inhibition at 10 µM ([6]; 10 µM, read-out: % Inhibition)?
**A.** 98%

**Q.** And the inhibition at 0.5 µM ([7]; 0.5 µM, read-out: % Inhibition)?
**A.** -28%

**Q.** What about the inhibition at 10 µM ([7]; 10 µM, read-out: % Inhibition) of the same compound?
**A.** -6%

**Q.** And the inhibition at 0.5 µM ([8]; 0.5 µM, read-out: % Inhibition)?
**A.** -12%

**Q.** What about the inhibition at 10 µM ([8]; 10 µM, read-out: % Inhibition) of the same compound?
**A.** 3%

**Q.** And the inhibition at 0.5 µM ([9]; 0.5 µM, read-out: % Inhibition)?
**A.** 4%

**Q.** And the inhibition at 10 µM ([9]; 10 µM, read-out: % Inhibition)?
**A.** 1%

**Q.** And the inhibition at 0.5 µM ([10]; 0.5 µM, read-out: % Inhibition)?
**A.** 36%

**Q.** And the inhibition at 10 µM ([10]; 10 µM, read-out: % Inhibition)?
**A.** 91%

**Q.** And the inhibition at 0.5 µM ([11]; 0.5 µM, read-out: % Inhibition)?
**A.** 3%

**Q.** And the inhibition at 10 µM ([11]; 10 µM, read-out: % Inhibition)?
**A.** 19%

**Q.** And the inhibition at 0.5 µM ([12]; 0.5 µM, read-out: % Inhibition)?
**A.** 19%

**Q.** What about the inhibition at 10 µM ([12]; 10 µM, read-out: % Inhibition) of the same compound?
**A.** 78%

**Q.** And the inhibition at 0.5 µM ([13]; 0.5 µM, read-out: % Inhibition)?
**A.** -15%

**Q.** And the inhibition at 10 µM ([13]; 10 µM, read-out: % Inhibition)?
**A.** 25%

**Q.** What about the inhibition at 0.5 µM ([14]; 0.5 µM, read-out: % Inhibition) of the same compound?
**A.** -4%

**Q.** What about the inhibition at 10 µM ([14]; 10 µM, read-out: % Inhibition) of the same compound?
**A.** 13%

**Q.** `Cn1ncc(Cl)c1-c1cc(C(=O)N[C@H](CN)Cc2cccc(F)c2)sc1Cl` [GSK2110183] was tested. Which inhibition at 0.5 µM [1] did it give?
**A.** -6%

**Q.** What about the inhibition at 10 µM [1] of the same compound?
**A.** 9%

**Q.** And the inhibition at 0.5 µM [2]?
**A.** 0%

**Q.** And the inhibition at 10 µM [2]?
**A.** 20%

**Q.** And the inhibition at 0.5 µM [3]?
**A.** 61%

**Q.** And the inhibition at 10 µM [3]?
**A.** 96%

**Q.** And the inhibition at 0.5 µM [4]?
**A.** -4%

**Q.** What about the inhibition at 10 µM [4] of the same compound?
**A.** 37%

**Q.** And the inhibition at 0.5 µM [5]?
**A.** -4%

**Q.** What about the inhibition at 10 µM [5] of the same compound?
**A.** 11%

**Q.** What about the inhibition at 0.5 µM [6] of the same compound?
**A.** 73%

**Q.** And the inhibition at 10 µM [6]?
**A.** 97%

**Q.** And the inhibition at 0.5 µM [7]?
**A.** -7%

**Q.** And the inhibition at 10 µM [7]?
**A.** 11%

**Q.** What about the inhibition at 0.5 µM [8] of the same compound?
**A.** 1%

**Q.** What about the inhibition at 10 µM [8] of the same compound?
**A.** 26%

**Q.** And the inhibition at 0.5 µM [9]?
**A.** -2%

**Q.** What about the inhibition at 10 µM [9] of the same compound?
**A.** 10%

**Q.** What about the inhibition at 0.5 µM [10] of the same compound?
**A.** 39%

**Q.** What about the inhibition at 10 µM [10] of the same compound?
**A.** 97%

**Q.** What about the inhibition at 0.5 µM [11] of the same compound?
**A.** -12%

**Q.** What about the inhibition at 10 µM [11] of the same compound?
**A.** -6%

**Q.** What about the inhibition at 0.5 µM [12] of the same compound?
**A.** 0%

**Q.** What about the inhibition at 10 µM [12] of the same compound?
**A.** 62%

**Q.** And the inhibition at 0.5 µM [13]?
**A.** 0%

**Q.** And the inhibition at 10 µM [13]?
**A.** -2%

**Q.** What about the inhibition at 0.5 µM [14] of the same compound?
**A.** -2%

**Q.** And the inhibition at 10 µM [14]?
**A.** 11%
